Earlier results, collected in patent US11077099B2, “Oral tablet formulation of lenalidomide” (SAMYANG HOLDINGS CORPORATION, priority 2016, dated 2021).

System: multiple myeloma
Details: combination of lenalidomide and dexamethasone; patients with relapses or refractory disease

In the case of Nc1cccc2c1CN(C1CCC(=O)NC1=O)C2=O (centres unmarked) [lenalidomide], the disease-free survival time is given as 13.4 months and the overall survival is given as 38 months.
